The structures appear in SMILES notation.

In general, IC50 refers to the midpoint of a concentration-inhibition curve.

Chain of human DGAT2 (hDGAT2) (Q96PD7 whole entry): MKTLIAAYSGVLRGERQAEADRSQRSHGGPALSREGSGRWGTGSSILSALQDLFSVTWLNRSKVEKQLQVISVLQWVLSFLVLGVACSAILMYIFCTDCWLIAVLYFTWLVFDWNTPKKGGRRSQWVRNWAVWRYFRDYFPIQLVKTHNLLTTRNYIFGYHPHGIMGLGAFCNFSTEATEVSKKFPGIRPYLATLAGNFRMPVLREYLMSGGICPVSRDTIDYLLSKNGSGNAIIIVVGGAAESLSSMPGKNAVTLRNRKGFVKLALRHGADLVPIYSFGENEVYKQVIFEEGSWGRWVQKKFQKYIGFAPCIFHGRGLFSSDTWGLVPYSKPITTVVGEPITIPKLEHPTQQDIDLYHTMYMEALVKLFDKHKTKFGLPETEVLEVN

This assay concerns the target human DGAT2 (hDGAT2) (Homo sapiens (Human), UniProt Q96PD7). In words: DGAT2 Enzymatic Activity Assay. The class given is biochemical. The conditions noted are these: membrane prep of Sf-9 insect cells expressing hDGAT2; 13C18-triolein product by LC/MS/MS. The method, then:
Sf-9 insect cells were maintained in Grace's insect cell culture medium with 10% heated-inactivated fetal bovine serum, 1% Pluronic F-68 and 0.14 μg/ml Kanamycine sulfate at 27° C. in a shaker incubator. After infection with untagged baculovirus expressing human DGAT2 (hDGAT2) at multiplicity of infection (MOI) 3 for 48 hours, cells were harvested. Cell pellets were suspended in buffer containing 10 mM Tris-HCl pH 7.5, 1 mM EDTA, 250 mM sucrose and Complete Protease Inhibitor Cocktail (Sigma Aldrich), and sonicated on ice. Cell debris were removed by centrifugation at 2000×g for 15 minutes. Membrane fractions were isolated by ultracentrifugation (100,000×g), resuspended in the same buffer, and frozen (−80° C.) for later use. The protein concentration was determined with the Pierce™ BCA Protein Assay Kit (Thermo Fisher Scientific). Expression of protein levels was analyzed by immunoblotting with rabbit anti-DGAT2 antibody (Abcam, ab102831) and donkey anti-rabbit IgG H&L Alexa Fluor® 647 (Abcam, ab150075) followed by detection using Typhoon FLA9000 (GE Healthcare).
LC/MS/MS analyses were performed using Thermal Fisher's LX4-TSQ Vantage system. This system consists of an Agilent binary high-performance liquid chromatography (HPLC) pumps and a TSQ Vantage triple quadrupole MS/MS instrument. For each sample, 2 μL samples from the top organic layer of in-plate liquid-liquid extraction were injected onto a Thermo Betabasic C4 column (2.1 mm×20 mm, 5 μm particle size). The samples were then eluted using the following conditions; mobile phase: Isopropanol: acetonitrile/10 mM ammonium formate=50/35/15 (v/v/v), flow rate: 0.8 mL/min, temperature: 25° C. Data was acquired in positive mode using a heated electrospray ionization (HESI) interface. The operational parameters for the TSQ Vantage MS/MS instrument were a spray voltage of 3000 V, capillary temperature of 280° C., vaporizer temperature 400° C., sheath gas 45 arbitrary unit, Aux gas 10 arbitrary units, S-lens 165 and collision gas 1.0 mTorr. […] (SRM) chromatograms of ^13C18-triolein (Q1: 920.8>Q3:621.3) and internal standard ^13C21-triolein (Q1: 923.8>Q3:617.3) were collected for 33 sec. The peak area was integrated by Xcalibur Quan software. The ratio between the ^13C18 triolein generated in the reaction and spiked in internal standard ^13C21-triolein was used to generate percentage inhibition and IC50 values. Compound percentage inhibition was calculated by the following formula: Inhibition %=1−[(compound response−low control)/(high control−low control)]×100%. Potent compounds were titrated and IC50 were calculated by 4 parameter sigmoidal curve fitting formula.
DGAT2 activity was determined by measuring the amount of enzymatic product ^13C18-triolein (^13C-1,2,3-Tri(cis-9-octadecenoyl)glycerol) using the membrane prep mentioned above. The assay was carried out in ABgene 384-well assay plates in a final volume of 25 μL at rt. The assay mixture contained the following: assay buffer (100 mM Tris·Cl, pH 7.0, 20 mM MgCl2, 5% ethanol), 25 μM of diolein, 5 μM of ^13C oleoyl-CoA and 8 ng/μL of DGAT2 membrane.
Consider `CC1(NC(=O)c2cnc3c(-c4cccc(OC(F)F)c4)nn(C4CCOCC4)c3c2)CS(=O)(=O)C1` [Example 63, 3-(3-(difluoromethoxy)phenyl)-N-(3-methyl-1,1-dioxidothietan-3-yl)-1-(tetrahydro-2H-pyran-4-yl)-1H-pyrazolo[4,3-b]pyridine-6-carboxamide], for which 18 nM corresponded to half-maximal inhibition (IC50).

Take `CC1(NC(=O)c2cnc3c(-c4cncc(OC(F)F)c4)nn(C4CCOCC4)c3c2)CS(=O)(=O)C1` [Example 64, 3-[5-(difluoromethoxy)-3-pyridyl]-N-(3-methyl-1,1-dioxo-thietan-3-yl)-1-tetrahydropyran-4-yl-pyrazolo[4,3-b]pyridine-6-carboxamide]: the midpoint of inhibition, the IC50, lay at 177 nM.

Take `Cn1nccc1-c1nn(C2CCOCC2)c2cc(C(=O)N[C@@]3(C)CCS(=O)(=O)C3)cnc12` [Example 65, N-[(3S)-3-methyl-1,1-dioxo-thiolan-3-yl]-3-(2-methylpyrazol-3-yl)-1-tetrahydropyran-4-yl-pyrazolo[4,3-b]pyridine-6-carboxamide]: inhibition was half-maximal at 10000 nM (IC50).

Take `CC1(NC(=O)c2cnc3c(-c4cccc(OC(F)F)c4)nn(CC4CCOCC4)c3c2)CS(=O)(=O)C1` [Example 69, 3-(3-(difluoromethoxy)phenyl)-N-(3-methyl-1,1-dioxidothietan-3-yl)-1-((tetrahydro-2H-pyran-4-yl)methyl)-1H-pyrazolo[4,3-b]pyridine-6-carboxamide]: the 50% inhibitory concentration (IC50) came to 59 nM.

`CC1(NC(=O)c2cnc3c(-c4cccc(OC(F)F)c4)nn(Cc4ccc(F)cc4)c3c2)CS(=O)(=O)C1` [Example 70, 3-(3-(difluoromethoxy)phenyl)-1-(4-fluorobenzyl)-N-(3-methyl-1,1-dioxidothietan-3-yl)-1H-pyrazolo[4,3-b]pyridine-6-carboxamide]: half-maximal inhibition (IC50) required 40 nM.

`CC1(NC(=O)c2cnc3c(-c4cccc(OC(F)F)c4)nn(C4CCOCC4C(F)(F)F)c3c2)CS(=O)(=O)C1` (stereo not shown) [Example 71, 3-(3-(difluoromethoxy)phenyl)-N-(3-methyl-1,1-dioxidothietan-3-yl)-1-(3-(trifluoromethyl)tetrahydro-2H-pyran-4-yl)-1H-pyrazolo[4,3-b]pyridine-6-carboxamide]: half-maximal inhibition (IC50) required 95 nM.

As to `CC(C)n1nc(-c2cccc(OC(F)F)c2)c2ncc(C(=O)NC3(C(C)(C)O)CCOCC3)cc21` [Example 72, 3-(3-(difluoromethoxy)phenyl)-N-(4-(2-hydroxypropan-2-yl)tetrahydro-2H-pyran-4-yl)-1-isopropyl-1H-pyrazolo[4,3-b]pyridine-6-carboxamide], the half-maximal inhibitory concentration (IC50) came out at 638 nM.

`CC(C)n1nc(-c2cccc(OC(F)F)c2)c2ncc(C(=O)NC3(CO)CCOCC3)cc21` [Example 74, 3-(3-(difluoromethoxy)phenyl)-N-(4-(hydroxymethyl)tetrahydro-2H-pyran-4-yl)-1-isopropyl-1H-pyrazolo[4,3-b]pyridine-6-carboxamide] registered a half-maximal inhibitory concentration (IC50) of 64 nM.

`C[C@]1(NC(=O)c2cc3c(cn2)c(-c2cncc(OC(F)F)c2)nn3C2CCOCC2)CCS(=O)(=O)C1` [Example 79, (S)-3-(5-(difluoromethoxy)pyridin-3-yl)-N-(3-methyl-1,1-dioxidotetrahydrothiophen-3-yl)-1-(tetrahydro-2H-pyran-4-yl)-1H-pyrazolo[4,3-c]pyridine-6-carboxamide] yielded a half-inhibitory concentration (IC50) of 10000 nM.

Regarding `C[C@]1(NC(=O)c2cnc3c(-c4cncc(OC(F)F)c4)cn(C4CCOCC4)c3c2)CCS(=O)(=O)C1` [Example 80, (S)-3-(5-(difluoromethoxy)pyridin-3-yl)-N-(3-methyl-1,1-dioxidotetrahydrothiophen-3-yl)-1-(tetrahydro-2H-pyran-4-yl)-1H-pyrrolo[3,2-b]pyridine-6-carboxamide], it took 875 nM to reach half-maximal inhibition (IC50).

Molecule `C[C@]1(NC(=O)c2cnc3c(-c4cccc(OC(F)F)c4)cn(C4CCOCC4)c3c2)CCS(=O)(=O)C1` [Example 81, (S)-3-(3-(difluoromethoxy)phenyl)-N-(3-methyl-1,1-dioxidotetrahydrothiophen-3-yl)-1-(tetrahydro-2H-pyran-4-yl)-1H-pyrrolo[3,2-b]pyridine-6-carboxamide] yielded an IC50 of 208 nM.

The molecule `C[C@]1(NC(=O)c2cc3c(cn2)c(-c2cccc(OC(F)F)c2)cn3C2CCOCC2)CCS(=O)(=O)C1` [Example 82, (S)-3-(3-(difluoromethoxy)phenyl)-N-(3-methyl-1,1-dioxidotetrahydrothiophen-3-yl)-1-(tetrahydro-2H-pyran-4-yl)-1H-pyrrolo[3,2-c]pyridine-6-carboxamide] came in with an IC50 of 612 nM.

Molecule `Cn1nccc1-c1cn(C2CCOCC2)c2cc(C(=O)N[C@@]3(C)CCS(=O)(=O)C3)c(F)cc12` [Example 83] showed an IC50 of 5430 nM. This IC50 is about 8.9-fold higher than that of the molecule before.

Consider `Cc1cc(C(=O)N[C@@]2(C)CCS(=O)(=O)C2)cc2c1c(-c1cccc(OC(F)F)c1)nn2C1CCOCC1` [Example 84, (S)-3-(3-(difluoromethoxy)phenyl)-4-methyl-N-(3-methyl-1,1-dioxidotetrahydrothiophen-3-yl)-1-(tetrahydro-2H-pyran-4-yl)-1H-indazole-6-carboxamide], for which the IC50 was determined as 13 nM.

Take `CC(C)n1nc(-c2cc(OC(F)F)ncc2F)c2nnc(C(=O)NC3(C)CCS(=O)(=O)CC3)cc21` [Example 85, 3-(2-(difluoromethoxy)-5-fluoropyridin-4-yl)-1-isopropyl-N-(4-methyl-1,1-dioxidotetrahydro-2H-thiopyran-4-yl)-1H-pyrazolo[4,3-c]pyridazine-6-carboxamide]: half-maximal inhibition (IC50) was put at 143 nM. Against the preceding molecule, the IC50 is about 11-fold higher.

In turn, `CC1(NC(=O)c2cnc3c(-c4cccc(OC(F)F)c4)nn(C4CC(F)(F)C4)c3c2)CS(=O)(=O)C1` [Example 86, 1-(3,3-difluorocyclobutyl)-3-(3-(difluoromethoxy)phenyl)-N-(3-methyl-1,1-dioxidothietan-3-yl)-1H-pyrazolo[4,3-b]pyridine-6-carboxamide] registered a concentration for half-maximal inhibition (IC50) of 24 nM. Against the preceding molecule, the IC50 is about 6-fold lower.

The molecule `CC1(NC(=O)c2cnc3c(-c4cccc(OC(F)F)c4)nn(C4CC(O)C4)c3c2)CS(=O)(=O)C1` (stereo not shown) [Example 88, 3-(3-(difluoromethoxy)phenyl)-1-(3-hydroxycyclobutyl)-N-(3-methyl-1,1-dioxidothietan-3-yl)-1H-pyrazolo[4,3-b]pyridine-6-carboxamide] displayed a 50% inhibitory concentration (IC50) of 80 nM.

Molecule `CC1(C)CC(n2nc(-c3cccc(OC(F)F)c3)c3ncc(C(=O)NC4(C)CS(=O)(=O)C4)cc32)C1` [Example 89, 3-(3-(difluoromethoxy)phenyl)-1-(3,3-dimethylcyclobutyl)-N-(3-methyl-1,1-dioxidothietan-3-yl)-1H-pyrazolo[4,3-b]pyridine-6-carboxamide] registered an IC50 of 2.9 nM.

Turning to `CC(C(N)=O)n1nc(-c2cc(OC(F)F)ccc2F)c2ncc(C(=O)NC3(C)CS(=O)(=O)C3)cc21` (stereo not shown) [Example 90, 1-(1-amino-1-oxopropan-2-yl)-3-(5-(difluoromethoxy)-2-fluorophenyl)-N-(3-methyl-1,1-dioxidothietan-3-yl)-1H-pyrazolo[4,3-b]pyridine-6-carboxamide], the half-maximal inhibitory concentration (IC50) was 480 nM.

In the case of `CC(C)n1nc(-c2cccc(OC(F)F)c2)c2c(C#N)cc(C(=O)NC3(C)CS(=O)(=O)C3)cc21` [Example 91, 4-cyano-3-(3-(difluoromethoxy)phenyl)-1-isopropyl-N-(3-methyl-1,1-dioxidothietan-3-yl)-1H-indazole-6-carboxamide], the IC50 came to 2 nM.

On to `CC(C)n1nc(-c2cccc(C3CC3)c2)c2ncc(C(=O)NC3(C)CS(=O)(=O)C3)cc21` [Example 92, 3-(3-cyclopropylphenyl)-1-isopropyl-N-(3-methyl-1,1-dioxidothietan-3-yl)-1H-pyrazolo[4,3-b]pyridine-6-carboxamide], for which half-maximal inhibition (IC50) was put at 31 nM. This IC50 is about 16-fold higher than that of the molecule before.

In the case of `CC(C)n1nc(-c2cccc(C(C)(F)F)c2)c2ncc(C(=O)NC3(C)CS(=O)(=O)C3)cc21` [Example 93, 3-[3-(1,1-difluoroethyl)phenyl]-1-isopropyl-N-(3-methyl-1,1-dioxo-thietan-3-yl)pyrazolo[4,3-b]pyridine-6-carboxamide], the IC50 is 210 nM.

(Values after patent US20240059700A1, “NOVEL DIACYLGLYCERIDE O-ACYLTRANSFERASE 2 INHIBITORS” (Merck Sharp & Dohme LLC, priority 2020, published 2024).)
